Biological target: T1, full-length ATR (Homo sapiens, UniProt Q13535)
T1 construct: in the presence of 5 nM full-length ATR
Test: ATR Inhibition Assay (radioactive-phosphate incorporation)
Type: biochemical
Conditions: Ki(app); 5 nM full-length ATR, 10 μM ATP, 800 μM target peptide, 25° C.
Experimental: Test compounds were screened for their ability to inhibit ATR kinase using a radioactive-phosphate incorporation assay. Assays were carried out in a mixture of 50 mM
Tris/HCl (pH 7.5), 10 mM MgCl2 and 1 mM DTT. Final substrate concentrations were 10 μM [γ-33P]ATP (3 mCi 33 P ATP/mmol ATP, Perkin Elmer) and 800 μM target peptide ([…]). Assays were carried out at 25° C. in the presence of 5 nM full-length ATR. An assay stock buffer solution was prepared containing all of the reagents listed above, with the exception of ATP and the test compound of interest. […] The plate was pre-incubated for 10 minutes at 25° C. and the reaction initiated by addition of 15 μL [γ-33P]ATP (final concentration 10 μM).
The reaction was stopped after […] by the addition of 30 μL 0.1M phosphoric acid containing 2 mM ATP. A multiscreen phosphocellulose filter 96-well plate (Millipore, Cat no. MAPHN0B50) was pretreated with 100 μL 0.2M phosphoric acid prior to the addition of 45 μL of the stopped assay mixture. The plate was washed with 5×200 μL 0.2M phosphoric acid.
After removing mean background values for all of the data points, Ki(app) data were calculated from non-linear regression analysis of the initial rate data using the Prism software package (GraphPad Prism version 3.0cx for Macintosh, GraphPad Software, San Diego Calif., USA).

T1 sequence (Q13535 whole entry): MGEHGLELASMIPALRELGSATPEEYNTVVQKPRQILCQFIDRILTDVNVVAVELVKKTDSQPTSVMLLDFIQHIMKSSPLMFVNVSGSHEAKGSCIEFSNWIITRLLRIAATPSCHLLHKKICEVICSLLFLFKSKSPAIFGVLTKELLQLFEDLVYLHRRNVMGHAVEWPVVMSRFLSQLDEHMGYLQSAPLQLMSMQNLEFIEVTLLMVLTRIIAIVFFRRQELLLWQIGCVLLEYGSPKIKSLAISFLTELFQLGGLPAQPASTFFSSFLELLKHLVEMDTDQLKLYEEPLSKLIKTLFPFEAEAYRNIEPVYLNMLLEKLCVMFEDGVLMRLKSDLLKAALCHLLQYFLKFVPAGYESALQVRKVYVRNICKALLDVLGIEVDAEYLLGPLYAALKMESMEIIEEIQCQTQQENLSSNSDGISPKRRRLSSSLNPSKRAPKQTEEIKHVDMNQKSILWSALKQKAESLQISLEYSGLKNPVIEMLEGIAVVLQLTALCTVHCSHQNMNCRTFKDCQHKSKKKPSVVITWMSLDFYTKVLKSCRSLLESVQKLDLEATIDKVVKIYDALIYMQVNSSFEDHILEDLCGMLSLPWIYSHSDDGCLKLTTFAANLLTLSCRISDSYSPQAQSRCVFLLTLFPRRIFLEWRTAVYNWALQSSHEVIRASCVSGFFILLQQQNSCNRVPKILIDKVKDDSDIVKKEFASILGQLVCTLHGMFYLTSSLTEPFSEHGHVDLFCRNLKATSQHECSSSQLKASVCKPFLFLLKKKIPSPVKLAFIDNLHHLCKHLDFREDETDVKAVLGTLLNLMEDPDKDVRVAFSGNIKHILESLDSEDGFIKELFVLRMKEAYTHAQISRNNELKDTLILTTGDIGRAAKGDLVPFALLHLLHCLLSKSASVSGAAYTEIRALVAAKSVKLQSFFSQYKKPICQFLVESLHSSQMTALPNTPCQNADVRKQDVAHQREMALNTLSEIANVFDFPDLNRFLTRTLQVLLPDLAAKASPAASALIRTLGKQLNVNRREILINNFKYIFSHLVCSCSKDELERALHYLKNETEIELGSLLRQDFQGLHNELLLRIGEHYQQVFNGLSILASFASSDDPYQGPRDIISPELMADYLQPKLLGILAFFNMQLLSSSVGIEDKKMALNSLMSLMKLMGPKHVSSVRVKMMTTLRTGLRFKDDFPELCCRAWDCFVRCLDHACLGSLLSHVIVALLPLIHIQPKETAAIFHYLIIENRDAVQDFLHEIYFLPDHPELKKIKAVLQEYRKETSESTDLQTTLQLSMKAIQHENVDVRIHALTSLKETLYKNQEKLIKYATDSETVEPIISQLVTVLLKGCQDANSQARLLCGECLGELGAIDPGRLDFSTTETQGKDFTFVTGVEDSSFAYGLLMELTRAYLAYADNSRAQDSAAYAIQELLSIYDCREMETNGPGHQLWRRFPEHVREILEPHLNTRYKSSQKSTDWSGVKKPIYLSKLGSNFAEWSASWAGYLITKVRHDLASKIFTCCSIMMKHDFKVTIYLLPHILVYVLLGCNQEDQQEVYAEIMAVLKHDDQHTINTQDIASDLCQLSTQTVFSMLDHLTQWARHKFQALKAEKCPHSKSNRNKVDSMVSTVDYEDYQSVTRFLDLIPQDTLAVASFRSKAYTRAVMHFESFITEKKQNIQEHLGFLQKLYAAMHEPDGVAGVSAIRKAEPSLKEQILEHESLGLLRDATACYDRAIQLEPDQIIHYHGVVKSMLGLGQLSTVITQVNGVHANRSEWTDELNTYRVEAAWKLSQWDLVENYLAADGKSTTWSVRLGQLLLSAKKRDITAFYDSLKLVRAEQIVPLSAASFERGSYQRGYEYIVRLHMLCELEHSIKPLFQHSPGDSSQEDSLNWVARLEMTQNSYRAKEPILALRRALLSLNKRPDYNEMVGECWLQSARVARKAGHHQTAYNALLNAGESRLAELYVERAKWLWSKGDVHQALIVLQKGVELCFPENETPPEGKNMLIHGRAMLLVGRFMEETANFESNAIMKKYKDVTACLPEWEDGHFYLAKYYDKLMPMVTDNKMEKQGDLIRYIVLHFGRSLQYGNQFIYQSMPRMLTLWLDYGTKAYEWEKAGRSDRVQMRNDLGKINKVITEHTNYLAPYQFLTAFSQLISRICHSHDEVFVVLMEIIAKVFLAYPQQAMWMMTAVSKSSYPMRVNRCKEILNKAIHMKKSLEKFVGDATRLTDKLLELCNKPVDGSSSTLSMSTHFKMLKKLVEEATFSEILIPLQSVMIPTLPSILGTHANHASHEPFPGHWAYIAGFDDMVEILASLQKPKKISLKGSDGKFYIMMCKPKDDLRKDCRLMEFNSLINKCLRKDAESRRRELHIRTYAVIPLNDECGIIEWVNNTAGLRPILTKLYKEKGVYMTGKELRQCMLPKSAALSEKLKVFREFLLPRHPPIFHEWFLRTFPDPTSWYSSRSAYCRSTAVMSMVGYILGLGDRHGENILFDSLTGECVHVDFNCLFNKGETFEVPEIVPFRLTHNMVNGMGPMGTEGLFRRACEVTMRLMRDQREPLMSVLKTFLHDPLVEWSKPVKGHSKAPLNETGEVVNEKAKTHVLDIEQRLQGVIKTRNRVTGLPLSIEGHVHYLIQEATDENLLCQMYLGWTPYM

| Compound | Ki [nM] |
| --- | --- |
| CCS(=O)(=O)N1CC=C(c2cnc(N)c(C(=O)Nc3ccnc(C)c3)n2)CC1 [Compound I-166, 3-amino-6-(1-(ethylsulfonyl)-1,2,3,6-tetrahydropyridin-4-yl)-N-(2-methylpyridin-4-yl)pyrazine-2-carboxamide] | 100 to 1000 |
| CC(=O)N1CCN(c2cnc(N)c(-c3nnc(-c4ccccc4)o3)n2)CC1 [Compound I-180, 1-(4-(5-amino-6-(5-phenyl-1,3,4-oxadiazol-2-yl)pyrazin-2-yl)piperazin-1-yl)ethanone] | 100 to 1000 |
| Nc1ncc(N2CCN(C(=O)COc3ccccc3)CC2)nc1C(=O)Nc1ccccn1 [Compound I-143, 3-amino-6-(4-(2-phenoxyethanoyl)piperazin-1-yl)-N-(pyridin-2-yl)pyrazine-2-carboxamide] | 1000 to 10000 |
| CC(=O)N1CCCN(c2cnc(N)c(-c3nc4ccc(C)cc4[nH]3)n2)CC1 [Compound I-1, 1-(4-(5-amino-6-(6-methyl-1H-benzo[d]imidazol-2-yl)pyrazin-2-yl)-1,4-diazepan-1-yl)ethanone] | 1000 to 10000 |
| CCOC(=O)N1CCN(c2cnc(N)c(-c3nc4ccc(C)cc4[nH]3)n2)CC1 [Compound I-32, ethyl 4-(5-amino-6-(6-methyl-1H-benzo[d]imidazol-2-yl)pyrazin-2-yl)piperazine-1-carboxylate] | 1000 to 10000 |
| Nc1ncc(C2=CCN(C(=O)c3ccccc3)CC2)nc1-c1nc2ccccc2[nH]1 [Compound I-82, (4-(5-amino-6-(1H-benzo[d]imidazol-2-yl)pyrazin-2-yl)-5,6-dihydropyridin-1(2H)-yl)(phenyl)methanone] | < 100 |
| CN(C)CC(=O)N1CC=C(c2cnc(N)c(-c3nc4ccccc4[nH]3)n2)CC1 [Compound I-186, 1-(4-(5-amino-6-(1H-benzo[d]imidazol-2-yl)pyrazin-2-yl)-5,6-dihydropyridin-1(2H)-yl)-2-(dimethylamino)ethanone] | 100 to 1000 |
| CCS(=O)(=O)N1CC=C(c2cnc(N)c(C(=O)Nc3nc4ccccc4[nH]3)n2)CC1 [Compound I-172, 3-amino-N-(1H-benzo[d]imidazol-2-yl)-6-(1-(ethylsulfonyl)-1,2,3,6-tetrahydropyridin-4-yl)pyrazine-2-carboxamide] | < 100 |
| CCS(=O)(=O)N1CC=C(c2cnc(N)c(C(=O)Nc3cc(C)ccn3)n2)CC1 [Compound I-167, 3-amino-6-(1-(ethylsulfonyl)-1,2,3,6-tetrahydropyridin-4-yl)-N-(4-methylpyridin-2-yl)pyrazine-2-carboxamide] | < 100 |
| N#CCN1CC=C(c2cnc(N)c(-c3nc4ccccc4[nH]3)n2)CC1 [Compound I-76, 2-(4-(5-amino-6-(1H-benzo[d]imidazol-2-yl)pyrazin-2-yl)-5,6-dihydropyridin-1(2H)-yl)ethanenitrile] | 100 to 1000 |
| CCS(=O)(=O)N1CCN(c2cnc(N)c(-c3nnc(C4CCCCC4)o3)n2)CC1 [Compound I-72, 3-(5-cyclohexyl-1,3,4-oxadiazol-2-yl)-5-(4-(ethylsulfonyl)piperazin-1-yl)pyrazin-2-amine] | 1000 to 10000 |
| CCS(=O)(=O)N1CCN(c2cnc(N)c(-c3cc4ccccc4o3)n2)CC1 [Compound I-29, 3-(benzofuran-2-yl)-5-(4-(ethylsulfonyl)piperazin-1-yl)pyrazin-2-amine] | 100 to 1000 |
| CCS(=O)(=O)N1CCN(c2cnc(N)c(-c3nnc(Nc4ccccc4)o3)n2)CC1 [Compound I-69, 5-(3-amino-6-(4-(ethylsulfonyl)piperazin-1-yl)pyrazin-2-yl)-N-phenyl-1,3,4-oxadiazol-2-amine] | 100 to 1000 |

Second part, the compound after the results:

| Ki [nM] | Compound |
| --- | --- |
| < 100 | CC(C)C(=O)N1CC=C(c2cnc(N)c(-c3nnc(-c4ccccc4)o3)n2)CC1 [Compound I-192, 1-(4-(5-amino-6-(5-phenyl-1,3,4-oxadiazol-2-yl)pyrazin-2-yl)-5,6-dihydropyridin-1(2H)-yl)-2-methylpropan-1-one] |
| 1000 to 10000 | COCCOC(=O)N1CCN(c2cnc(N)c(C(=O)Nc3ccccn3)n2)CC1 [Compound I-237, 2-methoxyethyl 4-(5-amino-6-(pyridin-2-ylcarbamoyl)pyrazin-2-yl)piperazine-1-carboxylate] |
| 100 to 1000 | Nc1ncc(N2CCN(S(=O)(=O)c3c(F)cccc3F)CC2)nc1-c1nnc(-c2ccccc2)o1 [Compound I-202, 5-(4-(2,6-difluorophenylsulfonyl)piperazin-1-yl)-3-(5-phenyl-1,3,4-oxadiazol-2-yl)pyrazin-2-amine] |
| 100 to 1000 | CCNC(=O)C1[C@H]2CN(c3cnc(N)c(-c4nnc(-c5ccc(CNC)cc5)o4)n3)C[C@@H]12 (stereo partly drawn) [Compound I-350, (1R,5S)-3-[5-Amino-6-[5-[4-(methylaminomethyl)phenyl]-1,3,4-oxadiazol-2-yl]pyrazin-2-yl]-N-ethyl-3-azabicyclo[3.1.0]hexane-6-carboxamide] |
| 1000 to 10000 | Nc1ncc(N2CCN(C(=O)N3CCCCC3)CC2)nc1-c1nc2ccccc2[nH]1 [Compound I-270, (4-(5-amino-6-(1H-benzo[d]imidazol-2-yl)pyrazin-2-yl)piperazin-1-yl)(piperidin-1-yl)methanone] |
| 100 to 1000 | CN(C)C(=O)N1CC=C(c2cnc(N)c(-c3nc4ccccc4[nH]3)n2)CC1 [Compound I-234, 4-(5-amino-6-(1H-benzo[d]imidazol-2-yl)pyrazin-2-yl)-N,N-dimethyl-5,6-dihydropyridine-1(2H)-carboxamide] |
| 100 to 1000 | CNCc1ccc(-c2nnc(-c3nc(C4=CCC(C)CC4)cnc3N)o2)cc1 (centres unmarked) [Compound I-336, 3-(5-(4-((Methylamino)methyl)phenyl)-1,3,4-oxadiazol-2-yl)-5-(4-methylcyclohex-1-enyl)pyrazin-2-amine] |
| 100 to 1000 | Cc1cccc(C)c1C(=O)N1CCN(c2cnc(N)c(-c3nnc(-c4ccccc4)o3)n2)CC1 [Compound I-258, (4-(5-amino-6-(5-phenyl-1,3,4-oxadiazol-2-yl)pyrazin-2-yl)piperazin-1-yl)(2,6-dimethylphenyl)methanone] |
| 100 to 1000 | CNCc1ccc(-c2nnc(-c3nc(N4CC[C@H](OC(=O)NCCOC)C4)cnc3N)o2)cc1 [Compound I-373, [(3S)-1-[5-Amino-6-[5-[4-(methylaminomethyl)phenyl]-1,3,4-oxadiazol-2-yl]pyrazin-2-yl]pyrrolidin-3-yl]N-(2-methoxyethyl)carbamate] |
| 100 to 1000 | COC(=O)N1CC=C(c2cnc(N)c(-c3nc4ccccc4[nH]3)n2)CC1 [Compound I-244, methyl 4-(5-amino-6-(1H-benzo[d]imidazol-2-yl)pyrazin-2-yl)-5,6-dihydropyridine-1(2H)-carboxylate] |
| 100 to 1000 | Nc1ncc(N2Cc3ccccc3C2=O)nc1-c1nc2ccccc2[nH]1 [Compound I-304, 2-[5-amino-6-(1H-benzimidazol-2-yl)pyrazin-2-yl]isoindolin-1-one] |
| < 100 | CNCc1ccc(-c2nnc(-c3nc(N4CC[C@@H](CNC(C)=O)C4)cnc3N)o2)cc1 [Compound I-323, N-[[(3S)-1-[5-Amino-6-[5-[4-(methylaminomethyl)phenyl]-1,3,4-oxadiazol-2-yl]pyrazin-2-yl]pyrrolidin-3-yl]methyl]acetamide] |
| < 100 | Nc1ncc(C2=CCN(C(=O)C3CCCCC3)CC2)nc1-c1nc2ccccc2[nH]1 [Compound I-259, (4-(5-amino-6-(1H-benzo[d]imidazol-2-yl)pyrazin-2-yl)-5,6-dihydropyridin-1(2H)-yl)(cyclohexyl)methanone] |
